Test results as given in patent EP0978281B1, “EYEDROPS CONTAINING A LORATIDINE METABOLITE” (Schering-Plough Kabushiki Kaisha, priority 1997, dated 1998).

System: IgE-immunized Rat Peritoneal Mast Cells
Test: cells
Settings: Mast cell, read-out: % inhibition of Histamine Release

**Q.** What does the source list for `CCOC(=O)N1CCC(=C2c3ccc(Cl)cc3CCc3cccnc32)CC1` [Loratadine, ethyl 4-(8-chloro-5,6-dihydro-11H-benzo[5,6]cyclohepta[1,2-b]pyridin-11-ylidene)-1-piperidinecarboxylate]?
**A.** inhibition at 0.3 µM: 19.8 ± 5.77%; inhibition at 1 µM: 27.1 ± 4.72%; inhibition at 3 µM: 45.8 ± 9.26%; inhibition at 10 µM: 73.3 ± 16.8%
